Reference: PubChem BioAssay (NCI)
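Exposure lasted 48 hours, with cells grown in 96-well plates and compounds tested at five concentrations. TGI marks complete inhibition of growth.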

How the values were obtained:
Test in all cases: DTP human tumour cell line panel, 48 h
NCI-H522 lung = system: NCI-H522 lung
UO-31 renal = system: UO-31 renal
CCRF-CEM leukemia = system: CCRF-CEM leukemia
A549 NSCLC = system: A549 NSCLC
U251 CNS = system: U251 CNS
NCI-H226 lung = system: NCI-H226 lung
BT-549 breast = system: BT-549 breast
IGROV1 ovarian = system: IGROV1 ovarian
UACC-257 melanoma = system: UACC-257 melanoma
PC-3 prostate = system: PC-3 prostate
SF-295 CNS = system: SF-295 CNS
OVCAR-4 ovarian = system: OVCAR-4 ovarian
SW-620 colon = system: SW-620 colon
UACC-62 melanoma = system: UACC-62 melanoma
RPMI-8226 leukemia = system: RPMI-8226 leukemia
OVCAR-5 ovarian = system: OVCAR-5 ovarian
SK-MEL-5 melanoma = system: SK-MEL-5 melanoma
COLO 205 colon = system: COLO 205 colon
T-47D breast = system: T-47D breast
SK-MEL-2 melanoma = system: SK-MEL-2 melanoma
DU-145 prostate = system: DU-145 prostate
SK-MEL-28 melanoma = system: SK-MEL-28 melanoma
HL-60(TB) leukemia = system: HL-60(TB) leukemia
K-562 leukemia = system: K-562 leukemia
MDA-N = system: MDA-N
SK-OV-3 ovarian = system: SK-OV-3 ovarian
MOLT-4 leukemia = system: MOLT-4 leukemia
SR leukemia = system: SR leukemia
ACHN renal = system: ACHN renal
RXF 393 renal = system: RXF 393 renal
HOP-92 NSCLC = system: HOP-92 NSCLC
EKVX NSCLC = system: EKVX NSCLC
HS 578T breast = system: HS 578T breast
HCT-15 colon = system: HCT-15 colon
TK-10 renal = system: TK-10 renal
OVCAR-3 ovarian = system: OVCAR-3 ovarian
NCI-H460 lung = system: NCI-H460 lung
MCF7 breast = system: MCF7 breast
LOX IMVI melanoma = system: LOX IMVI melanoma
KM12 colon = system: KM12 colon
NCI-H23 lung = system: NCI-H23 lung
M14 melanoma = system: M14 melanoma
HT29 colon = system: HT29 colon
SF-268 CNS = system: SF-268 CNS
HOP-62 NSCLC = system: HOP-62 NSCLC
CAKI-1 renal = system: CAKI-1 renal
SNB-75 CNS = system: SNB-75 CNS

Measured: TGI

O=C(CCCn1cnc([N+](=O)[O-])n1)NCCn1ccnc1[N+](=O)[O-]
> 100 µM: all assays above
